Biological target: T1, ROR1 (Homo sapiens, UniProt Q01973)
T1 construct: endogenous in cells; host or cells: JeKo-1
Assay: Cellular Thermal Shift Assay (CETSA)
Format: cell-based
Details: JeKo‐1, 40 μM, 2 h, 45–58 °C
Description: To further ascertain the binding between 17 and ROR1, we performed CETSA, a cell‐based test allowing us to carry out both qualitative and quantitative analyses of the direct interaction of a drug candidate to a target protein inside a cell.^[ [34] ^] CETSA assay was performed on JeKo‐1 cell line incubated with 17 for 2 h. After the treatment, ROR1 levels were evaluated by western blotting analysis. […] These findings provide strong evidence that the inhibitor effectively engages with ROR1 in cells, further supporting its mechanism of action (Figure 5 ). Ponatinib was used as a positive control (Figure S40, Supporting Information).
Figure 5 CETSA identifies ROR1 protein in the binding with 17 in JeKo‐1 cells. A) CETSA western blots and B) corresponding quantitative analysis of band intensity. […] Densitometry‐based quantification of western blotting signals was calculated by first normalizing to α‐tubulin levels in individual samples. […]
The CETSA is particularly suitable for identifying the interaction between ligands and their protein targets. […] The change in the thermal stability of the target protein is measured by the amount of residual soluble protein at different temperatures, comparing treated samples with control samples.^[ [32] ^] […] The amount of the soluble target protein was assessed by western blotting analysis.

T1 sequence (Q01973 30-937): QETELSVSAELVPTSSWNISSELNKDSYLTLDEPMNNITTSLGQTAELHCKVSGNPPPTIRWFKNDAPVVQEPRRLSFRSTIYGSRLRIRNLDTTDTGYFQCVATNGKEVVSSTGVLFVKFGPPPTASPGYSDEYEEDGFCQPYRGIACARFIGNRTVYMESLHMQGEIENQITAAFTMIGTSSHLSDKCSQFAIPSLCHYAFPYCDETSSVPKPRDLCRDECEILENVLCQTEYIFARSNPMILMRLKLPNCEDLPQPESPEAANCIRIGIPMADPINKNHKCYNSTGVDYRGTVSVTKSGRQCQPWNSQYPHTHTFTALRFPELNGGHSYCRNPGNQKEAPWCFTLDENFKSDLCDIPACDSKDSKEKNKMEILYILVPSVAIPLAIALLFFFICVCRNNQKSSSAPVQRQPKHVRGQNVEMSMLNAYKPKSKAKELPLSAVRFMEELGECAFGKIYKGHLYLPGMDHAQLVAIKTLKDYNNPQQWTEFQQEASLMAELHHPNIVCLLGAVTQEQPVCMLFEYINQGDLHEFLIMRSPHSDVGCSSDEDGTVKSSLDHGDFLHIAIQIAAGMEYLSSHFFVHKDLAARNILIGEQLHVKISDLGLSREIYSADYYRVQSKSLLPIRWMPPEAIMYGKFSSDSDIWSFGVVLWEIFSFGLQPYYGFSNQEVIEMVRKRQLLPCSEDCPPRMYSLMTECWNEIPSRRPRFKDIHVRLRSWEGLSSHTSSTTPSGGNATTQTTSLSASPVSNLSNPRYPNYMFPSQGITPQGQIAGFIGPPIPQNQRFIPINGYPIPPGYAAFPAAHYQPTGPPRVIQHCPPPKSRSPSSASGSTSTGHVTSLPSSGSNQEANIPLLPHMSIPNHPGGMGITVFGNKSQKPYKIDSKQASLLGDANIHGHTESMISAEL

ROR1 thermal stabilization: strong stabilization
Compound: O=C(NCc1ccc(-c2ccccc2)cc1)Nc1ccc(NCC2CCNCC2)cc1C(F)(F)F [Compound 17]

Reference: PMC12276035, “Novel Para‐Phenylenediamine‐Based Derivatives as Receptor Tyrosine Kinase‐like Orphan Receptor 1 (ROR1) Inhibitors: An In Vitro Preliminary Characterization” (Chemmedchem, 2025)
